From ChEMBL document CHEMBL3886292, “Functionally selective ligands of dopamine D2 receptors” (2015)

Tests used:
[1] = target: T1, D(2) dopamine receptor (Homo sapiens, UniProt P14416); test: Beta-Arrestin Recruitment (Tango) Assay: Recruitment of β-arrestin to agonist-stimulated D2 receptors was performed using a previously described Tango-type assay (Barnea et al., Proc. Natl. Acad. Sci. USA 105:64 (2008)). Briefly, HTLA cells stably expressing β-arrestin-TEV protease and a tetracycline transactivator-driven luciferase were plated in 15-cm dishes in DMEM containing 10% fetal bovine serum and transfected (via calcium phosphate) with 20 μg of a D2V2-TCS-tTA construct (Barnea et al., Proc. Natl. Acad. Sci. USA 105:64 (2008)). The next day, cells were plated in white, clear-bottom, 384-well plates (Greiner, 10,000 cells/well, 50 μl/well) in DMEM containing 1% dialyzed fetal bovine serum. The following day, the cells were challenged with 10 μl/well of reference agonist (6 μM) or D2 test ligand (6 μM)±reference agonist prepared in HBS, 20 mM HEPES, pH 7.4, 18% DMSO (final ligand concentrations were 1 μM, final DMSO concentration was 3%).; assay type: functional, cell-based
[2] = target: T1, D(2) dopamine receptor; test: cAMP GloSensor Assay: HEK293T cells co-expressing the cAMP biosensor GloSensor-22F (Promega) and hD2 receptors were seeded (10,000 cells/20 ul/well) into white, clear-bottom, tissue culture plates in HBSS, 10% FBS, 20 mM HEPES, pH 7.4. After a one- to two-hour recovery, cells were treated with 10 ul of 3x test or reference drug prepared in HBSS, 10% FBS, 20 mM HEPES, pH 7.4. After 30 minutes, cells were challenged with 10 ul of 1,200 nM (4x) isoproterenol in 8% (4x) GloSensor reagent. Luminescence per well per second was read on a Wallac TriLux microbeta plate counter. Data were normalized to the isoproterenol response (100%) and the maximal quinpirole-induced inhibition thereof (0%) and regressed using the sigmoidal dose-response function built into GraphPad Prism 4.0.; assay type: functional, cell-based, HEK-293T

T1 sequence (P14416 whole entry): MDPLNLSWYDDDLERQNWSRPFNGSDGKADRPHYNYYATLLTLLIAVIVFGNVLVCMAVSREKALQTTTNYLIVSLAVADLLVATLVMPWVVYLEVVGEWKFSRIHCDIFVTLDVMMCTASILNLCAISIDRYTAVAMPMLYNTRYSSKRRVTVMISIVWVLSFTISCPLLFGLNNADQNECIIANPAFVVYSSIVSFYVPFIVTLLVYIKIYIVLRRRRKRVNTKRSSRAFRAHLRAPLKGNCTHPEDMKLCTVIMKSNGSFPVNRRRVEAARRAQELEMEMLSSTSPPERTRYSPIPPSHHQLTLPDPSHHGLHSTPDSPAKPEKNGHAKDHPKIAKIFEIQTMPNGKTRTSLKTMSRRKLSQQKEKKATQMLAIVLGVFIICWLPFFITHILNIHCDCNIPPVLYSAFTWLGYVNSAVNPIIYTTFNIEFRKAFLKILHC

Compound `COc1ccccc1N1CCCN(CCCCOc2ccc3c(n2)NC(=O)CC3)CC1` has an EC50 [1] of 6.1 nM and an EC50 [2] of 222 nM.
